The subject of test [1] is pulmonary LPS-stimulated rats. Briefly: Immune cell infiltration in BALF, LPS-induced acute pulmonary inflammation. It is filed as in vivo. The conditions noted are these: 3 mg/kg IP 1 h before LPS; BALF 4 h post LPS.
Test [2] concerns pulmonary LPS-stimulated rats. Briefly: Cytokine expression in BALF supernatant (multiplex immunoassay), LPS-induced acute pulmonary inflammation. It is filed as in vivo. The conditions noted are these: 3 mg/kg IP 1 h before LPS.

Regarding `C[C@@H]1C[C@H]2[C@@H]3CCC4=CC(=O)C=C[C@]4(C)[C@@]3(F)[C@@H](O)C[C@]2(C)[C@@]1(O)C(=O)CO` [Dex, Dexamethasone, reference compound], in test [1], the “Neutrophils in BALF, reduction in cell count vs disease control” value is recorded as “+++ (+++ = >75% reduction in cell count vs disease control)” and the “Total Leukocytes in BALF, reduction in cell count vs disease control” value is “+++ (+++ = >75% reduction in cell count vs disease control)”. For the same molecule, in test [2], the “CCL2, significant change in cytokine expression in BALF supernatant” value is on record as “+ (+ = Significant change in cytokine quantification, p < 0.05 by Student's T-test)”; the “CCL3, significant change in cytokine expression in BALF supernatant” value is “+ (+ = Significant change in cytokine quantification, p < 0.05 by Student's T-test)”; the “CCL5, significant change in cytokine expression in BALF supernatant” value is “+ (+ = Significant change in cytokine quantification, p < 0.05 by Student's T-test)”; the “CCL11, significant change in cytokine expression in BALF supernatant” value was “+ (+ = Significant change in cytokine quantification, p < 0.05 by Student's T-test)”. For the same molecule, in test [2], the “CX3CL1, significant change in cytokine expression in BALF supernatant” value is listed as “+ (+ = Significant change in cytokine quantification, p < 0.05 by Student's T-test)”; the “CXCL1, significant change in cytokine expression in BALF supernatant” value is “+ (+ = Significant change in cytokine quantification, p < 0.05 by Student's T-test)”; the “CXCL5, significant change in cytokine expression in BALF supernatant” value is on record as “+ (+ = Significant change in cytokine quantification, p < 0.05 by Student's T-test)”; the “CXCL10, significant change in cytokine expression in BALF supernatant” value is given as “+ (+ = Significant change in cytokine quantification, p < 0.05 by Student's T-test)”. In test [2], the “EGF, significant change in cytokine expression in BALF supernatant” value is “+ (+ = Significant change in cytokine quantification, p < 0.05 by Student's T-test)”; the “IFN-γ, significant change in cytokine expression in BALF supernatant” value is “+ (+ = Significant change in cytokine quantification, p < 0.05 by Student's T-test)”; the “IL-1α, significant change in cytokine expression in BALF supernatant” value is recorded as “+ (+ = Significant change in cytokine quantification, p < 0.05 by Student's T-test)”; the “IL-1β, significant change in cytokine expression in BALF supernatant” value is on record as “+ (+ = Significant change in cytokine quantification, p < 0.05 by Student's T-test)”. Also, in test [2], the “IL-5, significant change in cytokine expression in BALF supernatant” value is “+ (+ = Significant change in cytokine quantification, p < 0.05 by Student's T-test)”; the “IL-6, significant change in cytokine expression in BALF supernatant” value is reported as “+ (+ = Significant change in cytokine quantification, p < 0.05 by Student's T-test)”; the “IL-10, significant change in cytokine expression in BALF supernatant” value is given as “+ (+ = Significant change in cytokine quantification, p < 0.05 by Student's T-test)”; the “IL-12p70, significant change in cytokine expression in BALF supernatant” value is “+ (+ = Significant change in cytokine quantification, p < 0.05 by Student's T-test)”. Besides, in test [2], the “IL-13, significant change in cytokine expression in BALF supernatant” value is listed as “+ (+ = Significant change in cytokine quantification, p < 0.05 by Student's T-test)”; the “IL-17A, significant change in cytokine expression in BALF supernatant” value is reported as “+ (+ = Significant change in cytokine quantification, p < 0.05 by Student's T-test)”; the “TNF-α, significant change in cytokine expression in BALF supernatant” value is listed as “+ (+ = Significant change in cytokine quantification, p < 0.05 by Student's T-test)”.
